# Reference: US6617337B1, “Use of nitroxides for the treatment of essential hypertension” (Georgetown University, priority 1997, dated 2003)
# Key:
# Assay type in all cases: in vivo, rat
# SHR and WKY rats [1] = assay: MAP after 7 days of intraperitoneal Tempol; conditions: Tempol 250 mg/kg/day intraperitoneally for 7 days
# SHR = assay: Role of NO in the MAP response to constant Tempol infusion (L-NAME or norepinephrine pretreatment)
# SHR and WKY rats [2] = assay: Maximal TGF responses during retrograde microperfusion of Tempol into the macula densa/JGA (Series 6); conditions: for Percentage reduction in TGF normalized to the initial response: Tempol 10^−3 M retrograde; for PSF difference 0-40 nl·min^−1 (maximal TGF response) / PSF during LH perfusion at 0 nl·min^−1 / PSF during LH perfusion at 40 nl·min^−1: retrograde perfusion, ATF+Tempol 10^−3 M, mean ± SEM
# Protocol: Series 4. Effects of inhibition of bNOS on maximal TGF responses in SHR and WKY. These experiments further examined the SHR hypertension model and whether the enhanced TGF of the SHR kidney is due to a blunted generation of NO by bNOS in the macula densa or whether NOS inhibition is diminished in the SHR model. Groups of SHR and age-matched WKY rats were prepared for in vivo micropuncture, microperfusion, and TGF studies as described in detail previously. In brief, animals were anesthetized with thiobarbital (Inactin, 100 mg·kg^−1; Research Biochemicals, Inc., Natick, Mass.). A catheter was placed in a jugular vein for fluid infusion and in a femoral artery for recording of mean arterial pressure (MAP) from the electrically damped output of a pressure transducer (Statham, Inc.). A tracheotomy tube was inserted and the animals were allowed to breathe spontaneously. The left kidney was exposed by a flank incision, cleaned of connective tissue, and stabilized in a Lucite cup. This kidney was bathed in 0.154 M NaCl maintained at 37° C. After completion of surgery, rats were infused with a solution of 0.154 M NaCl and 1% albumin at 1.5 ml·h^−1 to maintain a euvolemic state. Micropuncture studies were begun after 60 min for stabilization.
# For orthograde microperfusion of the loop of Henle (LH), a micropipette (8 μm OD) containing artificial tubular fluid (ATF) stained with FD&C dye was inserted into a late proximal tubule. Injections of the colored ATF identified the nephron and the direction of flow. An immobile bone wax block was inserted into this micropuncture site via a micropipette (10-15 μm) and connected to a hydraulic drive (Trent Wells, Inc., LaJolla, Calif.) to halt tubular fluid flow. A perfusion micropipette (6-8 μm) containing ATF and test compounds or vehicle was inserted into the proximal tubule downstream from the wax block and connected to a nanoliter perfusion pump (WPI, Sarasota, Fla.). A pressure micropipette (1-2 μm) was inserted into the proximal tubule upstream from the wax block to measure proximal stop flow pressure (PSF). Changes in PSF are an index of changes in glomerular capillary hydraulic pressure (PGC). Measurements of PSF were made in each nephron during zero loop perfusion and during perfusion with ATF at 40 nl·min^−1, which produces a maximal TGF response, defined as the difference between PSF values recorded during perfusion of the loop with ATF at 0 and 40 nl·min^−1.
# Groups of SHR (n=5) and WKY rats (n=5) were prepared for studies of retrograde microperfusion into the macula densa. […] Therefore, these studies of TGF were conducted with retrograde microperfusion from the early distal (ED) tubule into the macula densa. After identifying the nephron with FD&C green, the last proximal convolution was vented and a wax block placed upstream. A micropipette (8-10 μm OD) was inserted into the ED tubule upstream from an oil droplet. The loop of Henle was perfused retrogradely with perfusate entering the macula densa segment directly at 0 and 20 nl·min^−1. This represents a maximal activation for TGF by retrograde perfusion. […] Therefore, this dose was used thereafter in the test animals (Dosage/kg would usually be lower in larger animals). Comparisons were made of maximum TGF responses obtained during perfusion of ATF+vehicle (ethanol) and ATF+Tempol.
smiles,measurement,setting,value
"CC1(C)CC(O)CC(C)(C)N1[O] [Tempol, 4-hydroxy-2,2,6,6-tetramethyl-1-piperidinyloxy]",MAP after treatment,"SHR and WKY rats [1]; SHR, from 133±2, p<0.01",120±3 mm Hg
same,Effect on MAP,SHR and WKY rats [1]; WKY,no effect
same,Decrease in MAP,"SHR; SHR infused with norepinephrine, Tempol infusion",14%
same,MAP during Tempol infusion,"SHR; SHR infused with norepinephrine, Tempol infusion, P<0.05",161±7 mm Hg
same,MAP during Tempol infusion,"SHR; SHR pretreated with L-NAME, Tempol infusion 30 minutes, unchanged",186±4 mm Hg
same,MAP,"SHR; SHR, saline vehicle pretreatment, Tempol infusion 180 μmol·kg^−1·min^−1 (so in the source) for 30 minutes",121±17 mm Hg
same,Decrease in MAP,"SHR; SHR, saline vehicle pretreatment, Tempol infusion for 30 minutes, P<0.05",32%
same,Percentage reduction in TGF normalized to the initial response,SHR and WKY rats [2]; SHR,−26±2%
same,PSF difference 0-40 nl·min^−1 (maximal TGF response),SHR and WKY rats [2]; SHR,8.5 ± 0.8 mm Hg
same,PSF during LH perfusion at 0 nl·min^−1,SHR and WKY rats [2]; SHR,40.8 ± 0.8 mm Hg
same,PSF during LH perfusion at 40 nl·min^−1,SHR and WKY rats [2]; SHR,32.1 ± 0.9 mm Hg
same,Percentage reduction in TGF normalized to the initial response,SHR and WKY rats [2]; WKY,−17±3%
same,PSF difference 0-40 nl·min^−1 (maximal TGF response),SHR and WKY rats [2]; WKY,6.7 ± 0.4 mm Hg
same,PSF during LH perfusion at 0 nl·min^−1,SHR and WKY rats [2]; WKY,34.7 ± 0.8 mm Hg
same,PSF during LH perfusion at 40 nl·min^−1,SHR and WKY rats [2]; WKY,28.0 ± 0.9 mm Hg
same,"Maximally effective dose (preliminary studies, effects reversible)",SHR and WKY rats [2]; retrograde microperfusion into the macula densa,10^−3 M
